Experimental data reported in PubChem BioAssay (NCI).
“And” between values parts separate entries of the source, which are not always exact repeats. Equal entries are not always repeated.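 Test compounds were applied to cells in 96-well plates for 48 hours at 5 doses. GI50: concentration for 50% inhibition of growth. The concentration for full growth arrest is given as TGI.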

Experiments:
Assay in all cases: NCI tumour cell line growth inhibition, 48 h
OVCAR-8 ovarian = system: OVCAR-8 ovarian
OVCAR-3 ovarian = system: OVCAR-3 ovarian
NCI-H226 lung = system: NCI-H226 lung
HCC-2998 colon = system: HCC-2998 colon
SW-620 colon = system: SW-620 colon
SK-MEL-2 melanoma = system: SK-MEL-2 melanoma
UACC-62 melanoma = system: UACC-62 melanoma
A549 NSCLC = system: A549 NSCLC
RXF 393 renal = system: RXF 393 renal
RPMI-8226 leukemia = system: RPMI-8226 leukemia

O=c1cc(-c2ccccc2)oc2ccc(OC/C(=N/O)c3ccc(F)cc3)cc12 was tested, and the GI50 (OVCAR-8 ovarian) was 8.44 µM, the TGI (OVCAR-8 ovarian) was > 50 µM and the GI50 (OVCAR-3 ovarian) was 1.67 µM. For the same compound, the TGI (OVCAR-3 ovarian) was 7.2 µM, the GI50 (NCI-H226 lung) was 13.6 µM and the TGI (NCI-H226 lung) was > 50 µM. For the same compound, the GI50 (HCC-2998 colon) was 4.41 µM, the TGI (HCC-2998 colon) was 12.5 µM and the GI50 (SW-620 colon) was 2.67 µM. For the same compound, the TGI (SW-620 colon) was 32.8 µM, the GI50 (SK-MEL-2 melanoma) was 12.3 µM and the TGI (SK-MEL-2 melanoma) was > 50 µM. The GI50 (UACC-62 melanoma) was 5.5 µM, the TGI (UACC-62 melanoma) was 22.8 µM and the GI50 (A549 NSCLC) was 7.12 µM. The TGI (A549 NSCLC) was > 50 µM, the GI50 (RXF 393 renal) was 9.99 µM and the TGI (RXF 393 renal) was 26.1 µM. It also gave a GI50 (RPMI-8226 leukemia) of 3 µM and a TGI (RPMI-8226 leukemia) of 14.9 µM.
C=C1C(=O)O[C@H]2[C@H]1CC/C(COC(=O)c1cn(C)c3ccccc13)=C\CC[C@@]1(C)O[C@@H]21 gave a GI50 (OVCAR-8 ovarian) of 0.8 µM, a TGI (OVCAR-8 ovarian) of 2.4 µM and a GI50 (OVCAR-3 ovarian) of 0.384 µM. The TGI (OVCAR-3 ovarian) was 1.48 µM, the GI50 (NCI-H226 lung) was 1.48 µM and the TGI (NCI-H226 lung) was 3.26 µM. The GI50 (HCC-2998 colon) was 1.81 µM, the TGI (HCC-2998 colon) was 3.8 µM and the GI50 (SW-620 colon) was 0.301 µM. The TGI (SW-620 colon) was 1.1 µM, the GI50 (SK-MEL-2 melanoma) was 1.38 µM and the TGI (SK-MEL-2 melanoma) was 2.82 µM. The GI50 (UACC-62 melanoma) was 1.26 µM, the TGI (UACC-62 melanoma) was 2.74 µM and the GI50 (A549 NSCLC) was 1.82 µM. The TGI (A549 NSCLC) was 4.23 µM, the GI50 (RXF 393 renal) was 0.589 µM and the TGI (RXF 393 renal) was 2.11 µM. For the same compound, the GI50 (RPMI-8226 leukemia) was 0.217 µM and the TGI (RPMI-8226 leukemia) was 0.665 µM.
For CC(CN1CC(=O)NC(=O)C1)N1CC(=O)NC(=O)C1 (configuration not stated), the TGI (OVCAR-8 ovarian) was > 750 µM, the TGI (OVCAR-3 ovarian) was 701 µM and the TGI (NCI-H226 lung) was 505 µM. For the same compound, the TGI (HCC-2998 colon) was > 750 µM, the TGI (SW-620 colon) was > 750 µM and the TGI (SK-MEL-2 melanoma) was 741 µM. The TGI (UACC-62 melanoma) was > 686 µM, the TGI (A549 NSCLC) was > 750 µM and the TGI (RXF 393 renal) was > 750 µM. The TGI (RPMI-8226 leukemia) was > 750 µM.
In the case of CCN1C(=O)N(CC)C2C1NN=c1s/c(=C\c3cccs3)c(=O)n12 (configuration not stated), the GI50 (OVCAR-8 ovarian) was 0.424 µM, the TGI (OVCAR-8 ovarian) was > 100 µM and the GI50 (OVCAR-3 ovarian) was 0.0462 µM. The GI50 (NCI-H226 lung) was 2.76 µM, the TGI (NCI-H226 lung) was > 23 µM and the GI50 (HCC-2998 colon) was 0.257 µM. For the same compound, the TGI (HCC-2998 colon) was > 100 µM, the GI50 (SW-620 colon) was 0.0667 µM and the TGI (SW-620 colon) was > 100 µM. For the same compound, the GI50 (SK-MEL-2 melanoma) was 1.41 µM, the TGI (SK-MEL-2 melanoma) was > 100 µM and the TGI (UACC-62 melanoma) was > 100 µM. The GI50 (A549 NSCLC) was 0.244 µM, the TGI (A549 NSCLC) was > 100 µM and the GI50 (RXF 393 renal) was 0.141 µM. For the same compound, the TGI (RXF 393 renal) was > 100 µM, the GI50 (RPMI-8226 leukemia) was 0.412 µM and the TGI (RPMI-8226 leukemia) was > 100 µM.
For COc1cccc(Sc2ccc([N+](=O)[O-])c3no[n+]([O-])c23)c1, the GI50 (OVCAR-8 ovarian) was 6.22 µM, the TGI (OVCAR-8 ovarian) was 24.8 µM and the GI50 (OVCAR-3 ovarian) was 2.83 µM. It also gave a TGI (OVCAR-3 ovarian) of 7.48 µM, a GI50 (NCI-H226 lung) of 18.2 µM and a TGI (NCI-H226 lung) of 53.5 µM. It also gave a GI50 (HCC-2998 colon) of 22.3 µM, a TGI (HCC-2998 colon) of 46.3 µM and a GI50 (SW-620 colon) of 2.5 µM. The TGI (SW-620 colon) was 6.14 µM, the GI50 (SK-MEL-2 melanoma) was 20.9 µM and the TGI (SK-MEL-2 melanoma) was 45.2 µM. It also gave a GI50 (UACC-62 melanoma) of 13.7 µM, a TGI (UACC-62 melanoma) of 36 µM and a GI50 (A549 NSCLC) of 36.1 µM. For the same compound, the TGI (A549 NSCLC) was > 100 µM, the GI50 (RXF 393 renal) was 8.99 µM and the TGI (RXF 393 renal) was 23.8 µM. The GI50 (RPMI-8226 leukemia) was 3.67 µM and the TGI (RPMI-8226 leukemia) was 21 µM.
For CC(N)Cc1ccc(Cl)cc1 (configuration not stated), the TGI (OVCAR-8 ovarian) was > 100 µM, the TGI (OVCAR-3 ovarian) was > 100 µM and the TGI (NCI-H226 lung) was > 100 µM. For the same compound, the TGI (HCC-2998 colon) was > 100 µM, the TGI (SW-620 colon) was > 100 µM and the TGI (SK-MEL-2 melanoma) was > 100 µM. The TGI (UACC-62 melanoma) was > 100 µM, the TGI (A549 NSCLC) was > 100 µM and the TGI (RXF 393 renal) was > 100 µM. The TGI (RPMI-8226 leukemia) was > 100 µM.
In the case of COC1CC(C)C(OC)c2cc(O)cc(c2O)NC(=O)/C(C)=C/C=C\C(C)C(OC(N)=O)/C(C)=C\C(C)C1OC (configuration not stated), the GI50 (OVCAR-8 ovarian) was 0.704 µM and 0.602 µM, the TGI (OVCAR-8 ovarian) was 11.8 µM and 26.9 µM and the GI50 (OVCAR-3 ovarian) was 0.938 µM and 0.552 µM and 0.186 µM. For the same compound, the TGI (OVCAR-3 ovarian) was 5.31 µM and 7.4 µM, the TGI (NCI-H226 lung) was 24.3 µM and 24.4 µM and the GI50 (HCC-2998 colon) was 0.318 µM. For the same compound, the TGI (HCC-2998 colon) was 9.78 µM and 11.3 µM, the GI50 (SW-620 colon) was 0.0544 µM and 0.0649 µM and the TGI (SW-620 colon) was 3.7 µM and 3.97 µM. For the same compound, the GI50 (SK-MEL-2 melanoma) was 0.683 µM and 1.16 µM, the TGI (SK-MEL-2 melanoma) was 16 µM and 11.9 µM and the GI50 (UACC-62 melanoma) was 0.162 µM. For the same compound, the TGI (UACC-62 melanoma) was 8.89 µM and 5.83 µM, the GI50 (A549 NSCLC) was 0.435 µM and 1.84 µM and the TGI (A549 NSCLC) was 27.6 µM and 21.1 µM. The GI50 (RXF 393 renal) was 1.33 µM, the TGI (RXF 393 renal) was 9.01 µM and 8.63 µM and the GI50 (RPMI-8226 leukemia) was 0.174 µM and 0.383 µM. The TGI (RPMI-8226 leukemia) was 32.4 µM and 5.93 µM.
In the case of COc1cc(O)c(C(=O)CC(C)=O)c(OC)c1, the TGI (OVCAR-8 ovarian) was > 100 µM, the TGI (OVCAR-3 ovarian) was > 100 µM and the TGI (NCI-H226 lung) was > 100 µM. For the same compound, the TGI (HCC-2998 colon) was > 100 µM, the TGI (SW-620 colon) was > 100 µM and the TGI (SK-MEL-2 melanoma) was > 100 µM. For the same compound, the TGI (UACC-62 melanoma) was > 100 µM, the TGI (A549 NSCLC) was > 100 µM and the TGI (RXF 393 renal) was > 100 µM. For the same compound, the TGI (RPMI-8226 leukemia) was > 100 µM.
